pIC50: −log10 of the molar value.
Assays:
Rats = test: Geller-Seifter procedure (conflict session, anxiolytic properties); assay type: in vivo, rat; conditions: FR5 conflict session
Method: 1. Geller-Seifter Procedure
Potential anxiolytic properties have been evaluated using the Geller-Seifter procedure based on that originally described by Geller and Seifter, (1960) Psychopharmacologia, 1,482-492.
Rats are trained on a variable interval 30 sec schedule (VI30) to press a lever in order to obtain food reward. The 5 min sessions of the VI30 schedule alternate with 2-5 min of a schedule (FR5) in which every 5th lever press is followed by presentation of a food pellet paired with a 0.5 sec mild footshock. The total study lasts approximately 30 mins. Rats typically respond with high rates of lever pressing under the VI30 schedule and low response rates under the FR5 `conflict` session. Anxiolytic drugs increase the suppressed response rates of rats in `conflict` session.
Drugs are administered intraperitoneally or orally to groups of 3-8 rats 30 min before testing.
The results are expressed as the percentage increase in square root of the total number of lever presses in the FR5 `conflict` session. Square root transformation is necessary to normalise the data for statistical analysis using parametric methods (ANOVA).

[1] = molecular target: rat cerebral cortex membranes ([35S]-TBPS binding); test: [35S]-TBPS binding to rat cerebral cortex membranes in vitro; conditions: 2 nM [35S]-TBPS, 5x10^-6 M GABA
Method: 2. [^35 S]-TBPS binding to rat cerebral cortex membranes in vitro
Pooled rat cerebral cortices are homogenised in 20 volumes of 0.32M sucrose and centrifuged at 1000 g for 20 minutes (4° C.). The supernatant is removed and recentrifuged at 50,000 g (4° C., 20 mins). The P2 pellet is then suspended in 20 volumes of Tris citrate buffer (pH 7.1) and centrifuged at 50,000 g (4° C., 20 mins). This washing step is repeated three times and the pellet finally resuspended in 20 volumes of buffer and stored at -70° C. prior to use.
The tissue suspension ([…]) is incubated (25° C., 120 mins) with [^35 S]-TBPS (2 nM) in Tris citrate buffer (pH 7.1) containing 0.2M NaCl and 5×10^-6 M GABA. Non-specific binding is measured in the presence of 10^-4 M picrotoxin. Varying concentrations of test drugs (10^-7, 10^-6, 10^-5 and 10^-4 M final concentration) are added in a volume of […]. The total assay volume is […]. Incubation is stopped by rapid filtration using a Skatron cell harvester and radioactivity measured by liquid scintillation spectrometry. IC50 's are calculated as the concentration of test drug to inhibit 50% of specific binding.

Mice = test: MES Test (maximal electroshock seizure); assay type: in vivo, mouse; conditions: 100 mg/kg p.o.
Method: The maximal electroshock seizure (MES) test in rodents is one of the most widely used models of human grand mal epilepsy^1. In this model, anticonvulsant agents elevate the threshold to electrically-induced seizures whilst proconvulsants lower the seizure threshold.
Mice (male, Charles River, U.K. CD-1 strain, 25-30 g) are randomly assigned to groups of 10-20 and dosed orally or intraperitoneally at a dose volume of 10 ml/kg with various doses of compound (1-100 mg/kg) or vehicle. Mice are then subjected at 30 or 60 rain post dose to a variable voltage electroshock (0.1 sec., 50 Hz, sine wave form) via a buccal and a subcutaneous electrode. The mean voltage and standard error required to induce a tonic seizure in 50% (CV50) of the mice in the group is determined by the `up and down` method of Dixon and Mood (1948)^2. Statistical comparisons between vehicle- and drug-treated groups are made using the method of Litchfield and Wilcoxon (1949)^3.
If a tonic convulsion does occur, then the voltage is decreased, and so on until all the animals in the group have been tested.
The percentage increase or decrease in CV50 for each group compared to the control is calculated.
Studies are carried out using a Heathkit shock generator with totally variable control of shock level from 0 to 200 V and voltage steps of 5 V are used.
Drugs are suspended in 1% methyl cellulose.

Compound	pIC50 [1]	responding in the 'conflict' session (Rats; 20 mg/kg p.o.)	CV50 (voltage inducing tonic seizure in 50% of mice) (Mice)	responding in the 'conflict' session (Rats; 10 mg/kg p.o.)
C=CCCOC(=O)c1c(C)nc2sc3c(c2c1N)CCC(O)C3 (racemic) [Example 10, (±)-4-Amino-7-hydroxy-2-methyl-5,6,7,8-tetrahydrobenzo[b]thieno[2,3-b]pyridine-3-carboxylic acid, but-3-enyl ester]		significant increase		
Cc1nc2sc3c(c2c(N)c1C(=O)OCC1CCC1)CCC(O)C3 (racemic) [Example 5, (±)-4-Amino-7-hydroxy-2-methyl-5,6,7,8-tetrahydrobenzo[b]thieno[2,3-b]pyridine-3-carboxylic acid, cyclobutylmethyl ester]	> 4.70			
COC(=O)c1c(C)nc2sc3c(c2c1N)CCC(O)C3 (racemic) [Example 7, (±)-4-Amino-7-hydroxy-2-methyl-5,6,7,8-tetrahydrobenzo[b]thieno[2,3-b]pyridine-3-carboxylic acid, methyl ester]		significant increase		
C#CCCOC(=O)c1c(C)nc2sc3c(c2c1N)CCC(O)C3 (racemic) [Example 9, (±)-4-Amino-7-hydroxy-2-methyl-5,6,7,8-tetrahydrobenzo[b]thieno[2,3-b]pyridine-3-carboxylic acid, but-3-ynyl ester]				significant increase
C#CCOC(=O)c1c(C)nc2sc3c(c2c1N)CCC(O)C3 (racemic) [Example 8, (±)-4-Amino-7-hydroxy-2-methyl-5,6,7,8-tetrahydrobenzo[b]thieno[2,3-b]pyridine-3-carboxylic acid, prop-2-ynyl ester]				significant increase

The next lines start with results.

pIC50 [1]	Compound	responding in the 'conflict' session (Rats; 20 mg/kg p.o.)	CV50 (voltage inducing tonic seizure in 50% of mice) (Mice)	responding in the 'conflict' session (Rats; 10 mg/kg p.o.)
> 4.70	CC#CCOC(=O)c1c(C)nc2sc3c(c2c1N)CCC(O)C3 (racemic) [Example 4, (±)-4-Amino-7-hydroxy-2-methyl-5,6,7,8-tetrahydrobenzo[b]thieno[2,3-b]pyridine-3-carboxylic acid, but-2-ynyl ester]	significant increase		
> 4.70	CCOC(=O)c1c(C)nc2sc3c(c2c1N)CCC(O)C3 (single isomer, unassigned; (+)) [Example 3, (+)-4-Amino-7-hydroxy-2-methyl-5,6,7,8-tetrahydrobenzo[b]thieno[2,3-b]pyridine-3-carboxylic acid, ethyl ester]			
> 4.70	Cc1nc2sc3c(c2c(N)c1C(=O)OCC1CC1)CCC(O)C3 (racemic) [Example 6, (±)-4-Amino-7-hydroxy-2-methyl-5,6,7,8-tetrahydrobenzo[b]thieno[2,3-b]pyridine-3-carboxylic acid, cyclopropylmethyl ester]	significant increase		
> 4.70	CCOC(=O)c1c(C)nc2sc3c(c2c1N(C)C)CCC(OC)C3 (racemic) [Example 19, (±)-4-Dimethylamino-7-methoxy-2-methyl-5,6,7,8-tetrahydrobenzo[b]thieno[2,3-b]pyridine-3-carboxylic acid, ethyl ester]			
> 4.70	CCOC(=O)c1c(C)nc2sc3c(c2c1N)CCC(O)C3 (racemic) [Example 1, (±)-4-Amino-7-hydroxy-2-methyl-5,6,7,8-tetrahydrobenzo[b]thieno[2,3-b]pyridine-3-carboxylic acid, ethyl ester]	significant increase	significant increase	
